Results reported in patent publication US20100298302A1, “NOVEL PROTEIN KINASE MODULATORS” (priority 2009, published 2010).
Read-outs that look alike come from different tables or passages of the source.

What was measured:
[1] = system: PC-3 human prostatic cancer cells; assay: Alamar Blue cell proliferation assay, PC3; format: cell-based
Description: (§1) A representative cell-proliferation assay protocol using Alamar Blue dye (stored at 4° C., use 20 ul per well) is described hereafter.
(§2) a. Split and trypsinize cells.
(§3) b. Count cells using hemocytometer.
(§4) c. Plate 4,000-5,000 cells per well in 100 μl of medium and seed into a 96-well plate according to the following plate layout. Add cell culture medium only to wells B10 to B12. Wells B1 to B9 have cells but no compound added.
(§5) d. Add 100 μl of 2× drug dilution to each well in a concentration shown in the plate layout above. At the same time, add 100 μl of media into the control wells (wells B10 to B12). Total volume is 200 μl/well.
(§6) e. Incubate four (4) days at 37° C., 5% CO2 in a humidified incubator.
(§7) f. Add 20 μl Alamar Blue reagent to each well.
(§8) g. Incubate for four (4) hours at 37° C., 5% CO2 in a humidified incubator.
(§9) h. Record fluorescence at an excitation wavelength of 544 nm and emission wavelength of 590 nm using a microplate reader.
(§10) In the assays, cells are cultured with a test compound for approximately four days, the dye is then added to the cells and fluorescence of […] dye is detected after approximately four hours. Different types of cells can be utilized in the assays (e.g., HCT-116 human colorectal carcinoma cells, PC-3 human prostatic cancer cells, MDA-MB231 human breast cancer cells, K-562 human chronic myelogenous leukemia (CML) cells, MiaPaca human pancreatic carcinoma cells, MV-4 human acute myeloid leukemia cells, and BxPC3 human pancreatic adenocarcinoma cells).

[2] = system: K-562 human chronic myelogenous leukemia (CML) cells; assay: Alamar Blue cell proliferation assay, K-562; format: cell-based; details: K562, Table 4
Description: as §1, §2, §3, §4, §5, §6, §7, §8, §9, §10

[3] = system: MV-4-11; assay: Alamar Blue cell proliferation assay, MV-4-11; format: cell-based; details: Homo sapiens, MV4-11; Table 4
Description: as §1, §2, §3, §4, §5, §6, §7, §8, §9, §10

[4] = system: MiaPaca human pancreatic carcinoma cells; assay: Alamar Blue cell proliferation assay, MiaPaCa; format: cell-based; details: MIA PaCa-2
Description: as §1, §2, §3, §4, §5, §6, §7, §8, §9, §10

[5] = biological target: recombinant PIM-1 (Homo sapiens, UniProt P11309); assay: PIM-1 kinase assay; format: biochemical; details: for inhibition at 0.5 µM: 500 nM compound, read-out: PIM1: % inh 500 nM
Chain of recombinant PIM-1 (P11309 whole entry): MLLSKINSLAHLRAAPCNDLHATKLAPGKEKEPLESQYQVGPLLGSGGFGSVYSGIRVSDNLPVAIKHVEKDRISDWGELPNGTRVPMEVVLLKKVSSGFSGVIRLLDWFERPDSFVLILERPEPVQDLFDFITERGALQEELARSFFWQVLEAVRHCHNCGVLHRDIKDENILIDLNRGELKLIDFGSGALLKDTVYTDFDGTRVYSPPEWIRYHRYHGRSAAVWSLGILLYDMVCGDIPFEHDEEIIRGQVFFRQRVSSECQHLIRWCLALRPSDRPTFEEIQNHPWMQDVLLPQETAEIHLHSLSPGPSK
Description: The following procedure was used to assay the PIM-1 kinase activity of compounds of the invention. Other methods for assaying PIM-1 and other PIM kinases, as well as methods to assay for activity against various kinases known in the art.
In a final reaction volume of 50 ul, recombinant PIM-1 (1 ng) was incubated with 12 mM MOPS pH 7.0, 0.4 mM EDTA, glycerol 1%, brij 35 0.002%, 2-mercaptoethanol 0.02%, BSA 0.2 mg/ml, 100 uM KKRNRTLTK, 10 mM MgAcetate, 15 uM ATP, [γ-^33P-ATP] (specific activity approx. 500 cpm/pmol), DMSO 4% and test inhibitor compound at the required concentration. The reaction was initiated by the addition of the Magnesium ATP mixture. After 40 min incubation at 23° C., the reactions were quenched by the addition of 100 ul 0.75% Phosphoric acid, and the labeled peptide collected by filtration through a phosphocellulose filter plate. The plate was washed 4 times with 0.075% phosphoric acid (100 ul per well) and then, after the addition of scintillation fluid (20 ul per well), the counts were measured by a scintillation counter.

[6] = biological target: T1, recombinant human CK2 (Homo sapiens, UniProt P68400); assay: cell-free CK2 assay; format: biochemical
T1 construct: purchased Upstate
T1 sequence (P68400 whole entry): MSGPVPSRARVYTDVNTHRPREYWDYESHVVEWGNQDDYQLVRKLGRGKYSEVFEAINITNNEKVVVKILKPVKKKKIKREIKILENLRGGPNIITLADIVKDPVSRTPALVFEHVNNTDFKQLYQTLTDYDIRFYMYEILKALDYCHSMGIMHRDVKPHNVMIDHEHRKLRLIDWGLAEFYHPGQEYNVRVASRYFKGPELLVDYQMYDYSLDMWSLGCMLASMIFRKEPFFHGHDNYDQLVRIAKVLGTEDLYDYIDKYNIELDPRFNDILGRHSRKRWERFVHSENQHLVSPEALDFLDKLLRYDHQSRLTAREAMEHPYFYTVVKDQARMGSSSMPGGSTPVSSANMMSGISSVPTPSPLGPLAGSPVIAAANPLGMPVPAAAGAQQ
T1 sequence (P67870 whole entry partner): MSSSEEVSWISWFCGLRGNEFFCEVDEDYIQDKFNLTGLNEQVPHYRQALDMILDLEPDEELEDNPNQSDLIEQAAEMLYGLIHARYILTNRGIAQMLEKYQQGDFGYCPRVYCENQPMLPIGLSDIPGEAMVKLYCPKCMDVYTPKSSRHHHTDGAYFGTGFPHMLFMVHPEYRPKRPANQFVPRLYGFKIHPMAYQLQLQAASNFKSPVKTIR
Description: Modulatory activity of compounds described herein was assessed in vitro in cell-free CK2 assays by the following method.
Test compounds in aqueous solution were added at a volume of 10 microliters, to a reaction mixture comprising 10 microliters Assay Dilution Buffer (ADB; 20 mM MOPS, pH 7.2, 25 mM beta-glycerolphosphate, 5 mM EGTA, 1 mM sodium orthovanadate and 1 mM dithiothreitol), 10 microliters of substrate peptide (RRRDDDSDDD, dissolved in ADB at a concentration of 1 mM), 10 microliters of recombinant human CK2 (25 ng dissolved in ADB; Upstate). Reactions were initiated by the addition of 10 microliters of ATP Solution (90% 75 mM MgCl2, 75 micromolar ATP dissolved in ADB; 10% [γ-^33P]ATP (stock 1 mCi/100 μl; 3000 Ci/mmol (Perkin Elmer) and maintained for 10 minutes at 30 degrees C. The reactions were quenched with 100 microliters of 0.75% phosphoric acid, then transferred to and filtered through a phosphocellulose filter plate (Millipore). After washing each well 5 times with 0.75% phosphoric acid, the plate was dried under vacuum for 5 min and, following the addition of 15 ul of scintilation fluid to each well, the residual radioactivity was measured using a Wallac luminescence counter.

[7] = biological target: recombinant human PIM2 (Homo sapiens, UniProt Q9P1W9); assay: PIM-2 kinase assay; format: biochemical
Chain of recombinant human PIM2 (Q9P1W9 whole entry): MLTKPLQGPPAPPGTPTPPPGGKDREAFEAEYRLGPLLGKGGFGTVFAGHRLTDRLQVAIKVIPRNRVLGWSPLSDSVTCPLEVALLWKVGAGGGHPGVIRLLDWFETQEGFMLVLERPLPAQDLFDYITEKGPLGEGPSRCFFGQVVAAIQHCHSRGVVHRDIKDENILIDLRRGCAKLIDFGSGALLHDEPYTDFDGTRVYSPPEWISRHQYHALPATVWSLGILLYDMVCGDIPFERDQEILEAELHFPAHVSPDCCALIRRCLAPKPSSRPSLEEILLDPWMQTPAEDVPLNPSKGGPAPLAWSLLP
Description: Test compounds dissolved and diluted in DMSO (2 μl) were added to a reaction mixture comprising 10 μl of 5× Reaction Buffer (40 mM MOPS pH 7.0, 5 mM EDTA), 10 μl of recombinant human PIM2 solution (4 ng PIM-2 dissolved in dilution buffer (20 mM MOPS pH 7.0; EDTA 1 mM; 5% Glycerol; 0.01% Brij 35; […]; […] 2-mercaptoethanol; 1 mg/ml BSA)) and 8 ul of water. Reactions were initiated by the addition of 10 ul of ATP Solution ([…] (15 mM MgCl2; 75 uM ATP) 1% ([γ-33P]ATP: Stock 1 mCi/100 μl; 3000 Ci/mmol (Perkin Elmer)) and 10 ul of substrate peptide solution (RSRSSYPAGT, dissolved in water at a concentration of 1 mM), Reactions were maintained for 10 min at 30° C. The reactions were quenched with 100 ul of 0.75% Phosphoric acid, then transferred to and filtered through a Phosphocellulose filter plate (Millipore, MSPH-N6B-50). After washing each well 4 times with 0.75% Phosphoric acid, scintillation fluid (20 uL) was added to each well and the residual radioactivity was measured using a Wallac luminescence counter.

[8] = 15 μM ATP, read-out: PIM1: IC50 (15 μM ATP)

Structure (SMILES) | IC50 [1] | IC50 [2] | IC50 [3] | IC50 [4] | inhibition at 0.5 µM [5] | IC50 [5, 8] | IC50 [6] | IC50 [7] | IC50 ([5]; Table 5, read-out: PIM1 IC50)
Clc1cccc(-c2nc3cc(-c4nnn[nH]4)ccc3n3cccc23)c1 | > 10 µM | > 10 µM | > 10 µM | > 10 µM | 25% |  |  |  | 
COc1cccc(Nc2nc3cc(C(=O)O)ccc3n3cccc23)c1 | > 10 µM | > 10 µM | > 10 µM | > 10 µM | 79% | 354 nM |  |  | 
O=C(O)c1ccc2c(c1)nc(Nc1cccc(F)c1)c1cccn12 | > 10 µM | > 10 µM | > 10 µM | > 10 µM | 78.1% | 156 nM |  |  | 
CN(c1cccc(Cl)c1)c1nc2cc(C(=O)O)ccc2n2cccc12 | > 10 µM | > 10 µM | > 10 µM | > 10 µM | 49.7% |  |  |  | 
CN(c1ccccc1)c1nc2cc(-c3nnn[nH]3)ccc2n2cccc12 | > 10 µM | > 10 µM | > 10 µM | > 10 µM | 15.3% |  |  |  | 
O=C(O)c1ccc2c(c1)nc(Nc1ccc3ncccc3c1)c1cccn12 |  | > 10 µM | > 10 µM | > 10 µM | 43.2% | 239 nM |  |  | 
NC(=O)c1cc(F)cc(Nc2nc3cc(C(=O)O)ccc3n3cccc23)c1 |  | > 10 µM | > 10 µM | > 10 µM | 69.3% | 229 nM |  |  | 
CCOC(=O)c1cccc2c1[nH]c(=O)c1cccn12 |  |  |  |  |  |  | > 5 µM | > 2500 nM | > 2500 nM
CCOC(=O)c1cccc2c1nc(Nc1ccccc1F)c1cccn12 |  |  |  |  |  |  | > 5 µM | > 2500 nM | > 2500 nM
CCOC(=O)c1cccc2c1nc(N(C(=O)OC(C)(C)C)c1ccccc1F)c1cccn12 |  |  |  |  |  |  | > 5 µM | > 2500 nM | > 2500 nM
OCc1cccc2c1nc(Nc1ccccc1F)c1cccn12 |  |  |  |  |  |  | > 5 µM | < 5000 nM | > 2500 nM
CC(C)(C)OC(=O)OCc1cccc2c1nc(N(C(=O)OC(C)(C)C)c1ccccc1F)c1cccn12 |  |  |  |  |  |  | > 5 µM | > 2500 nM | > 2500 nM

Next, values leading:

IC50 [1] | IC50 [2] | IC50 [3] | IC50 [4] | inhibition at 0.5 µM [5] | IC50 [5, 8] | IC50 [6] | IC50 [7] | IC50 ([5]; Table 5, read-out: PIM1 IC50) | Structure (SMILES)
> 10 µM | > 10 µM | 2.93 µM | 8.92 µM | 95.4% | 95 nM |  |  |  | O=C(O)c1ccc2c(c1)nc(Nc1cccc(Cl)c1)c1cccn12
> 10 µM | > 10 µM | > 10 µM | > 10 µM | 92.3% | 115 nM |  |  |  | N#Cc1cccc(Nc2nc3cc(C(=O)O)ccc3n3cccc23)c1
> 10 µM | > 10 µM | > 10 µM | > 10 µM | 43.8% |  |  |  |  | Cc1ccccc1Nc1nc2cc(C(=O)O)ccc2n2cccc12
> 10 µM | > 10 µM | 4.98 µM | 9.37 µM | 77.4% | 150 nM |  |  |  | Clc1cccc(Nc2nc3cc(-c4nnn[nH]4)ccc3n3cccc23)c1
> 10 µM | > 10 µM | > 10 µM | > 10 µM | 59.3% | 466 nM |  |  |  | Clc1ccccc1Nc1nc2cc(-c3nnn[nH]3)ccc2n2cccc12
> 10 µM | > 10 µM | 7.77 µM | > 10 µM | 63.8% | 514 nM |  |  |  | Fc1cc(F)cc(Nc2nc3cc(-c4nnn[nH]4)ccc3n3cccc23)c1
> 10 µM | > 10 µM | 6.58 µM | > 10 µM | 45.2% |  |  |  |  | FC(F)(F)c1cccc(Nc2nc3cc(-c4nnn[nH]4)ccc3n3cccc23)c1
> 10 µM | > 10 µM | > 10 µM | > 10 µM | 6.59% |  |  |  |  | CN(c1cccc(Cl)c1)c1nc2cc(-c3nnn[nH]3)ccc2n2cccc12
> 10 µM | > 10 µM | > 10 µM | > 10 µM | 52.4% | 676 nM |  |  |  | Cc1ccccc1Nc1nc2cc(-c3nnn[nH]3)ccc2n2cccc12
